Assay results published in ChEMBL document CHEMBL4346699 (Eur J Med Chem, 2019).

How the values were obtained:
[1] = Half life in Sprague-Dawley rat at 1 mg/kg, iv by LC-MS/MS analysis; format: ADME, organism-based; details: in vivo
[2] = AUC (0 to 7 hrs) in Sprague-Dawley rat at 1 mg/kg, iv by LC-MS/MS analysis; format: ADME, organism-based; design: dose 1 mg/kg, time < 7 hr, route intravenous; details: in vivo
[3] = Clearance in Sprague-Dawley rat at 1 mg/kg, iv by LC-MS/MS analysis; format: ADME, organism-based; details: in vivo
[4] = AUC (0 to 7 hrs) in Sprague-Dawley rat at 5 mg/kg, po by LC-MS/MS analysis; format: ADME, organism-based; design: dose 5 mg/kg, time < 7 hr, route oral; details: in vivo
[5] = Tmax in Sprague-Dawley rat at 5 mg/kg, po by LC-MS/MS analysis; format: ADME, organism-based; details: in vivo
[6] = Oral bioavailability in Sprague-Dawley rat at 5 mg/kg by LC-MS/MS analysis; format: ADME, organism-based; details: in vivo
[7] = Volume of distribution at steady state in Sprague-Dawley rat at 1 mg/kg, iv by LC-MS/MS analysis; format: ADME, organism-based; details: in vivo, read-out: Vdss
[8] = Clearance in human; format: ADME
[9] = Metabolic stability in human microsomes assessed as parent compound remaining after 0 mins; format: ADME, Microsome; details: read-out: Stability
[10] = Metabolic stability in human microsomes assessed as parent compound remaining after 5 mins; format: ADME, Microsome; details: read-out: Stability
[11] = Metabolic stability in rat microsomes assessed as parent compound remaining after 15 mins; format: ADME, Microsome; details: read-out: Stability
[12] = Metabolic stability in rat microsomes assessed as parent compound remaining after 5 mins; format: ADME, Microsome; details: read-out: Stability
[13] = Metabolic stability in rat microsomes assessed as parent compound remaining after 45 mins; format: ADME, Microsome; details: read-out: Stability
[14] = Metabolic stability in rat microsomes assessed as parent compound remaining after 0 mins; format: ADME, Microsome; details: read-out: Stability
[15] = Metabolic stability in human microsomes assessed as parent compound remaining after 15 mins; format: ADME, Microsome; details: read-out: Stability
[16] = Metabolic stability in rat microsomes assessed as parent compound remaining after 30 mins; format: ADME, Microsome; details: read-out: Stability
[17] = Half life in rat microsomes; details: in vitro
[18] = Metabolic stability in human microsomes assessed as parent compound remaining after 45 mins; format: ADME, Microsome; details: read-out: Stability
[19] = Clearance in rat microsomes; details: in vitro
[20] = Metabolic stability in human microsomes assessed as parent compound remaining after 30 mins; format: ADME, Microsome; details: read-out: Stability
CDK2/Cyclin A2 = CDK2/Cyclin A2 (Homo sapiens, UniProt P24941); assay: Inhibition of CDK2/CyclinA (unknown origin) assessed as reduction in TAMRA tagged peptide substrate phosphorylation by fluorescence polarization assay; format: protein-complex assay
[21] = biological target: Cyclin-dependent kinase 1 (Homo sapiens, UniProt P06493)
Chain of Cyclin-dependent kinase 1 (P06493 whole entry, the tested form may be a part): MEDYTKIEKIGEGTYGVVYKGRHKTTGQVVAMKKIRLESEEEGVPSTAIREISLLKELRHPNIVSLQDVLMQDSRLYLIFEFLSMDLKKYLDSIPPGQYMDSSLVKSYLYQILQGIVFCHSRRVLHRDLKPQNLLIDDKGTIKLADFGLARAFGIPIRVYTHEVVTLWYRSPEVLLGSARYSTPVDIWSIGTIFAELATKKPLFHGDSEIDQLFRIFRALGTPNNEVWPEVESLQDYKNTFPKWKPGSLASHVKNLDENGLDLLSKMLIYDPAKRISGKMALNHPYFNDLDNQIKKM
Description: Inhibition of CDK1 (unknown origin)

[22] = biological target: Homeodomain-interacting protein kinase 1 (Homo sapiens, UniProt Q86Z02); assay: Inhibition of wild-type human partial length HIPK1 (M146 to I555 residues) expressed in mammalian expression system assessed as residual activity at 50 nM by Kinomescan method relative to control
Chain of Homeodomain-interacting protein kinase 1 (Q86Z02 whole entry, the tested form may be a part): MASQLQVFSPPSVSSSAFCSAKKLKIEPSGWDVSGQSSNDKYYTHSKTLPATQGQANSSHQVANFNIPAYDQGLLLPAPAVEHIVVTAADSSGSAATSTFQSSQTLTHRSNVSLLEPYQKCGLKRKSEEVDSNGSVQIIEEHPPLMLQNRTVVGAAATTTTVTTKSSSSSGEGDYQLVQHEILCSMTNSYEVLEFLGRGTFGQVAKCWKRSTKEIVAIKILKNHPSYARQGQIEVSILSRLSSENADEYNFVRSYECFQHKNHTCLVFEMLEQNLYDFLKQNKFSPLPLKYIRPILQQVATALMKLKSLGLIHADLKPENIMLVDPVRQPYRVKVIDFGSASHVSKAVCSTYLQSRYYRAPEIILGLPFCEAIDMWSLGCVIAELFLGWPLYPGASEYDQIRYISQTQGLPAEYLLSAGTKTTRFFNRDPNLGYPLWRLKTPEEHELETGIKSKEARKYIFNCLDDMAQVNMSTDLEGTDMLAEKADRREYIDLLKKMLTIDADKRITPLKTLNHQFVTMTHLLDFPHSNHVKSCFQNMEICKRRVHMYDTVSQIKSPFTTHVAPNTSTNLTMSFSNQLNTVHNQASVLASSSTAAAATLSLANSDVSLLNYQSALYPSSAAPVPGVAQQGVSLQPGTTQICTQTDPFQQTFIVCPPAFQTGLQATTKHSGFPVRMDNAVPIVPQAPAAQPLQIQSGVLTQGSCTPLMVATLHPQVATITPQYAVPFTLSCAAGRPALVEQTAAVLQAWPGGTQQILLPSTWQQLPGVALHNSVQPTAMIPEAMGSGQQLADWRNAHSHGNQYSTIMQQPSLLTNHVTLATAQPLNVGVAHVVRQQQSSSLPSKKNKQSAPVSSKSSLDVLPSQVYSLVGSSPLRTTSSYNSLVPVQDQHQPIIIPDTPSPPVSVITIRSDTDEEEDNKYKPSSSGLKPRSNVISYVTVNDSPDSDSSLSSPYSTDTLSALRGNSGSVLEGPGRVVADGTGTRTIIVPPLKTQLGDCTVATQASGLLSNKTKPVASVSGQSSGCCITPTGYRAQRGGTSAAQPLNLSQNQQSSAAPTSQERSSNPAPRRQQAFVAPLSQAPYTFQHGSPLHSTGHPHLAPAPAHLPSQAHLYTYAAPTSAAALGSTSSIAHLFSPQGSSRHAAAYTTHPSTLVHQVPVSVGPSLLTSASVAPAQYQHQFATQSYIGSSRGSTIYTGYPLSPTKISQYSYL

[23] = Protein binding in human plasma; format: ADME, cell-free; details: read-out: PPB (converted)
[24] = Tmax in human; format: ADME
[25] = biological target: Calcium/calmodulin-dependent protein kinase type 1 (Homo sapiens, UniProt Q14012); assay: Inhibition of wild-type human full length CAMK1A (M1 to L370 residues) expressed in bacterial expression system assessed as residual activity at 50 nM by Kinomescan method relative to control
Chain of Calcium/calmodulin-dependent protein kinase type 1 (Q14012 whole entry, the tested form may be a part): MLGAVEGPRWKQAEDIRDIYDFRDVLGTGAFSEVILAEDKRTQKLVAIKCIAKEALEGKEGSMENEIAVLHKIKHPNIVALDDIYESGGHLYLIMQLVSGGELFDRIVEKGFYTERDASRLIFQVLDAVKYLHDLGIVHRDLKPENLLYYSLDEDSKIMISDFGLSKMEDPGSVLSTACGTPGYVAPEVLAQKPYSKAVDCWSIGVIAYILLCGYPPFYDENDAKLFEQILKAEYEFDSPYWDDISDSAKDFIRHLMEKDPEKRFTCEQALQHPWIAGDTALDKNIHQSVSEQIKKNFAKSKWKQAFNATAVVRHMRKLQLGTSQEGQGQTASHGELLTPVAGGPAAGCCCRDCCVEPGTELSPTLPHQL

[26] = Tmax in human at 125 mg, po; format: ADME; details: in vivo
[27] = Oral bioavailability in human at 125 mg; format: ADME, organism-based; details: in vivo
[28] = Protein binding in human plasma at 125 mg, po; format: ADME, cell-free; details: read-out: PPB (converted)

Compound	clearance [8]	remaining at 0 h [9]	remaining at 5 min [10]	remaining at 0.25 h [11]	remaining at 5 min [12]	remaining at 0.75 h [13]	remaining at 0 h [14]	remaining at 0.25 h [15]	remaining at 0.5 h [16]	half-life [17]	remaining at 0.75 h [18]	clearance [19]	remaining at 0.5 h [20]	other results
[2H]C([2H])([2H])N(C(=O)c1cc2cnc(Nc3ccc(N4CCNCC4)cn3)nc2n1C1CCCC1)C([2H])([2H])[2H]	–	–	–	–	–	–	–	–	–	–	–	–	–	half-life [1]: 3.2 h; AUC ([2]; 7 h): 0.883 µM·h; clearance [3]: 37 mL/min/kg; AUC [4]: 5.432 µM·h; Tmax [5]: 2 h; F [6]: 55%; Vd [7]: 8.6 L/kg
CN(C)C(=O)c1cc2cnc(Nc3ccc(N4CCNCC4)cc3)nc2n1C1CCCC1	–	–	–	–	–	–	–	–	–	–	–	–	–	IC50 (CDK2/Cyclin A2): > 1400 nM; IC50 [21]: > 1600 nM
CCN1CCN(Cc2ccc(Nc3ncc(F)c(-c4cc(F)c5nc(C)n(C(C)C)c5c4)n3)nc2)CC1 [ABEMACICLIB]	172 mL/min/kg	100%	76.1%	81%	94.1%	45.6%	100%	38.9%	61.6%	0.658 h	4.76%	62.9 mL/min/kg	13%	Ki [22]: < 10 nM; fraction unbound [23]: 0.04; Tmax [24]: 4 to 24 h; Ki [25]: < 10 nM
CC(=O)c1c(C)c2cnc(Nc3ccc(N4CCNCC4)cn3)nc2n(C2CCCC2)c1=O [PALBOCICLIB]	–	–	–	–	–	–	–	–	–	–	–	–	–	Tmax [26]: 6 to 12 h; bioavailability [27]: 46%; fraction unbound [28]: 0.15
CN(C)C(=O)c1cc2cnc(Nc3ccc(N4CCNCC4)cn3)nc2n1C1CCCC1 [RIBOCICLIB]	–	–	–	–	–	–	–	–	–	–	–	–	–	half-life [1]: 2.3 h; AUC(0-t) at 7 h ([2]; Sprague-Dawley): 1.03 µM·h; fraction unbound [23]: 0.3; Tmax [24]: 1 to 4 h; AUC [4]: 1.618 µM·h; Tmax [5]: 1.5 h

Second part, led by results:

clearance [8]	remaining at 0 h [9]	remaining at 5 min [10]	remaining at 0.25 h [11]	remaining at 5 min [12]	remaining at 0.75 h [13]	remaining at 0 h [14]	remaining at 0.25 h [15]	remaining at 0.5 h [16]	half-life [17]	remaining at 0.75 h [18]	clearance [19]	remaining at 0.5 h [20]	Compound	other results
130 mL/min/kg	100%	80.3%	86%	92.2%	57.6%	100%	47.9%	69.9%	0.956 h	9.86%	43.3 mL/min/kg	21.3%	[2H]C([2H])([2H])C([2H])([2H])N1C([2H])([2H])C([2H])([2H])N(Cc2ccc(Nc3ncc(F)c(-c4cc(F)c5nc(C)n(C(C)C)c5c4)n3)nc2)C([2H])([2H])C1([2H])[2H]	–
155 mL/min/kg	100%	79.4%	83%	92.7%	51.3%	100%	43.3%	65.9%	0.785 h	6.48%	52.7 mL/min/kg	16.4%	[2H]c1nc(Nc2ncc(F)c(-c3cc(F)c4nc(C)n(C(C)C)c4c3)n2)c([2H])c([2H])c1CN1CCN(C([2H])([2H])C([2H])([2H])[2H])CC1	–
156 mL/min/kg	100%	77.7%	83.4%	93.8%	51.3%	100%	42.4%	66.9%	0.784 h	6.21%	52.8 mL/min/kg	16%	[2H]C([2H])([2H])C([2H])([2H])N1CCN(Cc2ccc(Nc3ncc(F)c(-c4cc(F)c5nc(C)n(C(C)C)c5c4)n3)nc2)CC1	–
